# Results reported in patent US20250161312A1, “A METHOD FOR THE TREATMENT OF CHEMOTHERAPEUTIC DRUG-INDUCED NEPHROTOXICITY” (INSTITUT NATIONAL DE LA SANTÉ ET DE LA RECHERCHE MÉDICALE, priority 2022, published 2025).
# Key:
# [1] = tested on: mEERL tumors in C57B16/J mice; test: mEERL in vivo tumor model (HPV+ squamous carcinoma)
# Experimental: FIG. 8. […] The arrow represents cisplatin and/or PBS injection. […] (E) Absolute tumor sizes in animals in the different groups.
# We used a validated murine model of HPV+ oropharyngeal squamous cell carcinoma as previously described (noncommercial) (77). This model consists of oropharyngeal epithelial cells from C57Bl/6 male mice that stably express the HPV16 viral oncogenes E6 and E7, H-Ras, and luciferase (mEERL cells). mEERL cells were grown in a T75 flask until confluent, after which cells were trypsinized and harvested, washed 3 times with sterile PBS, and resuspended in 1 mL sterile PBS to the appropriate concentration. Mice were injected s.c. into the right flank with 20 μL solution containing either 1,000,000 mEERL cells or PBS (vehicle). The day of mEERL cell injection is indicated as day −14. Tumor volume was monitored using Vernier digital calipers.
# RPTEC/hTERT cells = test: Cell viability assay (CellTiter-Glo); format: cell-based, human; settings: cisplatin 50 μM, KW-6002 0.5-12.8 μM, 48 hours
# Experimental: Cells were cultured in DMEM/F12 medium (Dulbecco's modified Eagle's medium and Ham's F12 medium, Thermo Fisher) supplemented with 1% penicillin/streptomycin, 5 pmol/L triiodo-L-thyronine, 10 ng/ml recombinant human epidermal growth factor, 3.5 μg/mL ascorbic acid, 5.0 μg/mL human transferrin, 5.0 μg/mL insulin, 25 ng/mL prostaglandin E1, 25 ng/ml hydrocortisone, 8.65 ng/mL sodium selenite, 0.1 mg/mL G418 and 1.2 g/L sodium bicarbonate (Sigma). Lewis lung carcinoma mouse LLC1 cells were cultured in DMEM glutamax (Thermo Fisher) containing 10% fetal calf serum and 1% penicillin/streptomycin. Cells were cultured at 37° C. in a humidified atmosphere of 5% CO2.
# Viability was assessed using the CellTiter-Glo® Luminescent Cell Viability Assay (Promega) according to manufacturer's recommendations.
# H1975 cells [2] = test: γH2AX nuclear foci in H1975 cells; format: cell-based; settings: 50 μM cisplatin, 10 nM KW6002, 6 hours, FIG. 7F
# Experimental: (§1) FIG. 7. […] Caspase 3/-7 activity (n=3 independent experiments) (A) and the number of γH2AX nuclear foci (n=36-63 nuclei/group) (B) were determined. […] Results are expressed as the mean±SEM (n=3 independent experiments). (E) Tail moment was assessed by comet assay. A total of 50 cells per condition were analyzed. *** P<0.001; 1-way ANOVA followed by Tukey's post hoc test. […] (I) KW6002 increased yH2AX expression in tumors from mice of the LLC1 syngeneic model. Quantification of nuclear yH2AX expression.
# LLC1 cells = test: γH2AX immunostaining in LLC1 cells; format: cell-based, mouse; settings: 2 μM cisplatin, 10 nM KW-6002, 6 hours, FIG. 7B
# Experimental: as §1
# Cells were fixed with 4% paraformaldehyde, permeabilized with DPBS/0.1% Triton X100 and incubated with γH2AX (Ser139) antibody (1/400; #9718, Cell Signaling Technology) and then, Alexa Fluor 488 secondary antibody (1/200; Life Technologies). Samples were examined on an immunofluorescence microscope (Leica™ DMI8) and γH2AX nuclear foci were counted.
# [3] = Cumulative model of cisplatin toxicity; format: in vivo; settings: FIG. 5
# Description: FIG. 5. […] BUN quantification.
# RPTEC/hTERT1 cells = test: Catalase activity; format: cell-based, human; settings: cisplatin 50 μM, KW6002 25 μM, 48 hours
# Experimental: Catalase activity was assessed using the Catalase Colorimetric Activity Kit (Thermo Fisher Scientific) according to the manufacturer's instructions.
# H1975 cells [4] = test: Comet assay in H1975 cells; format: cell-based; settings: FIG. 7E
# Experimental: as §1
# Treated cells were suspended (60,000 cells/mL) in low-melt agarose (1613111, Bio-Rad) 0.5% in PBS at 42° C. The suspension was then immediately spread on a comet slide (4250-200-03, R&D Systems). Agarose was allowed to cool down for 20 minutes at 4° C. Then, cell membranes were permeabilized with a lysis solution (2.5M NaCl, 100 mM EDTA, 10 mM Tris-HCl, 1% Triton X-100 [pH 10]) at 4° C. for 1 hour. […] The images were analyzed using an ImageJ in-home macro, in which the head (the nucleus) and tail (the DNA that migrated) of the comet were delimited to get the fluorescence intensity of the head, the fluorescence intensity of the tail, and the length of the tail. The calculation of tail moments was done using the following formula: (length of the comet tail×fluorescence intensity of the tail)/total fluorescence intensity (head+tail).
# C57BL6/J mice = test: Acute cisplatin-induced kidney injury model; format: in vivo
# Experimental: Animal procedures were performed in 8 to 10 weeks old male C57B16/J mice (Janvier Labs). Mice were fed a laboratory standard diet with water and food ad libitum and were kept under constant environmental conditions with a 12-hour light-dark cycle. […] Three days after this single injection, animals were sacrificed by cervical dislocation (FIG. 1A).
# Prior sacrifice by cervical dislocation, retro-orbital blood samples were collected in heparinized tubes and centrifuged for 10 min at 2000 rpm at room temperature. Renal function was assessed by Blood urea nitrogen (BUN) measurement using a AU480 Chemistry Analyzer (Beckman Coulter). At the time of sacrifice, kidneys or LLC1 tumors were harvested and stored in either “RNA later” solution (Thermo Fisher), 4% neutral buffered formalin or snap-frozen in liquid nitrogen.
# Formalin-fixed and paraffin-embedded sections (3 μm thick) were stained with Hematoxylin and Eosin (Sigma Aldrich) or Periodic Acid-Schiff (Sigma-Aldrich). Slices were scored by a nephropathologist in a blinded manner. A kidney injury score grading scale from 0 to 5 was used to assess the severity of the injury as follow: 0=no lesions, 1=minimal injury characterized by occurrence of necrosis and debris; 2=mild injury with single cell necrosis, pyknotic cells, and apoptosis; 3=moderate injury characterized by tubular distension, vacuolation, and some cellular debris, 4=severe injury with occasional hyaline casts observed, patchy epithelial necrosis in all segments, loss of epithelial lining; and 5=very severe injury characterized by extensive tubular epithelial necrosis in all segments, loss of epithelial layer from many tubules widespread intraluminal cellular debris, and frequent hyaline casts particularly prominent in the medullary region (67).
# Total RNA from kidney samples was extracted with phenol/chloroform and subsequently precipitated in isopropanol as described previously (71). Total RNA from cultured renal cells was extracted using RNeasy Mini kit (Qiagen) following manufacturer's recommendations.
# Reverse transcription was performed on 1 μg of RNA using high-capacity cDNA reverse transcription kit (Thermo Fisher), according the manufacturer's recommendation. Real time PCR was performed on a StepOne device using Taqman Gene Expression Master Mix (Thermo Fisher), following manufacturer's recommendations. Expression levels of the following genes were evaluated using comparative CT method (2-deltaCT): Neutrophil Gelatinase Associated Lipocalin (NGAL, Assay IDs Hs00194353_ml and Mm01324470_m1), Kidney Injury Molecule-1 (KIM-1, Assay ID Hs00273334_ml and Mm00506686_m1), Tumor Necrosis Factor alpha (TNFα, Assay ID Hs00174128_m1 and Mm00443258_m1), Interleukin-6 (I16, Assay ID Hs00174131_m1 and Mm00446190_m1), Adora2A Receptor (A2AR, Assay ID Hs00169123_m1 and Mm00802075_m1), Bcl2 associated X (Bax, Assay ID Hs00180269_m1 and Mm00432051_m1), B cell lymphoma 2 (Bcl2, Assay ID Hs00608023_m1 and Mm00477631_m1), Copper transporter receptor 1 (CTR1, Assay ID Hs00741015_m1 and Mm00612987_m1), Organic cation transporter 2 (OCT2, Assay ID Hs00533907 m1 and Mm00457295_m1), ATPase 7A (ATP7A, Assay ID Hs00163707_m1 and Mm00437663_m1), ATPase 7B (ATP7B, Assay ID Hs00163739_m1 and Mm00599675_m1), Multidrug and toxin extrusion ½ (MATE1/2, Assay ID Hs00979028 m1/Hs00945652_m1 and Assay ID Mm00840361_m1/Mm02601002_m1), ATP Binding Cassette Subfamily C Member 2 (Abcc2, Assay ID Hs00166123_m1 and Mm00496899_m1) instructions. Transcript levels of PPIA (human Hs99999904_mland mouse sample Mm02342430_m1) were used as endogenous control.
structure (smiles),measurement,setting,value
"CCn1c(=O)c2c(nc(/C=C/c3ccc(OC)c(OC)c3)n2C)n(CC)c1=O [KW-6002, 8-[(E)-2-(3,4-dimethoxyphenyl)vinyl]-1,3-diethyl-7-methyl-3,7-dihydro-1H-purine-2,6-dione]",cisplatin-induced pain hypersensitivity (von Frey),[1]; FIG. 8D,alleviated cisplatin-induced pain hypersensitivity
same,tumor control by cisplatin (tumor size),[1]; FIG. 8E,significantly potentiated tumor control by cisplatin
same,indicators of renal toxicity (KIM-1) induced by cisplatin,"[1]; tumor-bearing mice, FIG. 8A",limited
same,expression of Tnf induced by cisplatin,"[1]; tumor-bearing mice, FIG. 8B",limited
same,expression of I16 induced by cisplatin,"[1]; tumor-bearing mice, FIG. 8C",limited
same,cisplatin-induced cell death,RPTEC/hTERT cells,reduced cisplatin-induced cell death in a concentration-dependent manner
same,cisplatin-induced cell death,RPTEC/hTERT cells; listed as KW6002,concentration-dependently reduced cisplatin-induced cell death
same,DNA damage: yH2AX nuclear foci,H1975 cells [2],increased number of H2AX+ cells
same,DNA damage: γH2AX nuclear foci,LLC1 cells,increased number of H2AX+ cells
same,"BUN quantification, cisplatin-induced kidney injury",[3],protects from cisplatin-induced kidney injury
same,cisplatin-induced decrease in catalase activity,RPTEC/hTERT1 cells,normalized
same,DNA damage: tail moment,H1975 cells [4],did not impede the antitumoral effect of cisplatin
same,histological lesions (histological score of renal injury),"C57BL6/J mice; A model, FIG. 2B",less severe histological lesions
same,"mRNA levels of I16, change vs. cisplatin","C57BL6/J mice; A model, kidney",−73.8±5.3%
same,"mRNA levels of Tnfα, change","C57BL6/J mice; A model, kidney",−36.0±4.3%
same,reduction of KIM-1 expression vs. cisplatin,"C57BL6/J mice; A model, kidney mRNA",−95.2±0.7%
same,reduction of NGAL expression vs. cisplatin,"C57BL6/J mice; A model, kidney mRNA",−55.5±5.9%
same,reduction of BUN vs. cisplatin,"C57BL6/J mice; A model: cisplatin 10 mg/kg single i.p., KW-6002 3 mg/kg i.p. daily day-1 to day 2",−42.9±7.4%
